Test results as given in patent US20240181091A1, “ORAL DELIVERY OF SILICA/ALUMINOSILICATE NANOPARTICLES” (Cornell University, priority 2021, published 2024).

Test system: Caco-2 monolayer
Type: in vitro ADME, human
Procedure: To test that the monolayer well resembled the epithelial lining of the GI tract and formed tight junctions, Lucifer Yellow (LY) was used as a standard. It has been reported that the integrity of a Caco-2 monolayer is good once the Papp of LY across the monolayer is <5×10^−7 cm/s. The measured Papp of LY across all Caco-2 monolayers (see Methods for more details) used in this study is depicted in FIG. 8B, with all values of Papp<3×10^−7 cm/s.
Caco-2 Cell Culture: Caco-2 cells (ATCC) were cultured in RPMI 1640 supplemented with 20% fetal bovine serum and 10k/10k penicillin/streptomycin (Lonza). 75 μL of Caco-2 cells were plated on the apical side of a 96-well Transwell dish at a seeding density of 2×10^5 cells/mL. 75 μL of media was used on the apical side and 235 μL on the basolateral side. The media was changed every other day for a week, followed by changes every day until the Papp of a Lucifer Yellow assay was <5×10^−7 cm/s. Cells were incubated at 37° C. with 5% CO2 and 90% humidity.
Lucifer Yellow Monolayer Integrity Assay: Lucifer Yellow (LY) was dissolved at a concentration of 0.1 mg/mL in Hank's balanced salt solution (HBSS). 75 μL of LY solution was added to the apical side and 235 μL HBSS was added to the basolateral side. […] The concentration of LY on the basolateral side was determined using fluorescence 488/520 ex/em with a Spectramax M2. […]

Lucifer Yellow [LY]
Papp of Lucifer Yellow across Caco-2 monolayers: < 3e-07 cm/s
